Measurements from US20240408211A1, “COMPOSITIONS AND METHODS OF AMELIORATING AVERSIVENESS OF AVERSIVE STIMULI BY INHIBITION OF PURINERGIC RECEPTORS” (Monell Chemical Senses Center, priority 2021, published 2024).
Like-named read-outs stand apart in the source and are kept apart here.

Key:
P2X2/3 = target: T1, P2X2/3 (Homo sapiens, UniProt P56373+Q9UBL9); experiment: P2X2/3 stable HEK293 cell lines responding to α,β-meATP (screening assay); format: cell-based; details: P2X2/3 stable HEK293 lines; FIGS. 8A and 8B
T1 construct: expressed in transfected cells; host or cells: HEK293
T1 sequence (Q9UBL9 1-471): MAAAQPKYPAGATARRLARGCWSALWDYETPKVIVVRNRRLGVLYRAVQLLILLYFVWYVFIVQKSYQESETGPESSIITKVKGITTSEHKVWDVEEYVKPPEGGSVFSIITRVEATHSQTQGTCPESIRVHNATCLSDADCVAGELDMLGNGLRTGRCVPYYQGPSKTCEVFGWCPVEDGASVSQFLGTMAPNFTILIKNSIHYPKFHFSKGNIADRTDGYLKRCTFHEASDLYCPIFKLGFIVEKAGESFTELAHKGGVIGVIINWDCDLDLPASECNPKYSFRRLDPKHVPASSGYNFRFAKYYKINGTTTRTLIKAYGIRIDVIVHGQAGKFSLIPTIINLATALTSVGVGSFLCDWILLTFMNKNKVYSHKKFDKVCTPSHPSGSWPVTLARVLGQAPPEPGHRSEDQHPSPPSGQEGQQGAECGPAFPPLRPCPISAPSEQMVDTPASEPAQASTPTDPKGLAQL
T1 sequence (P56373 1-397): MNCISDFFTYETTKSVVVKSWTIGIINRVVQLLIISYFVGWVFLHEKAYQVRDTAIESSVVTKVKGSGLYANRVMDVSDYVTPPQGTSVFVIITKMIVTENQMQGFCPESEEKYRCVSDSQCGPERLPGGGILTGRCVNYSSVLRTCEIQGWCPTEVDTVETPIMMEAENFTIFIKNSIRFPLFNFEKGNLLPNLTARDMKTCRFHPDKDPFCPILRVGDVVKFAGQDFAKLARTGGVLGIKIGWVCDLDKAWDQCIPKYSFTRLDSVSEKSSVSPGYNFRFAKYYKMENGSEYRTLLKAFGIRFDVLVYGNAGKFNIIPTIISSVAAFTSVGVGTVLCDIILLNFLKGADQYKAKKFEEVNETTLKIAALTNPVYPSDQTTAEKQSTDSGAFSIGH
Protocol: In this study, we built stable cell lines expressing P2X2/3 in HEK293 cells via transfection with either P2X2-Neo or P2X3-Zeo constructs, following which selection was performed using Zeocin, G418. Picked clones were grown out from single cells (cultured continuously in the presence of Zeocin and G418) using cloning rings.
The resulted stable cell lines are used for characterizing putative taste-blockers.

[1] = cited from earlier work
P2X3/P2X2/3 = details: cited from earlier work
[2] = solutions (2 mg/mL) and suspensions in acidic media; room temperature; cited from earlier work
rats = details: cited from earlier work
[3] = system: P2X3/P2X2/3 receptors on bladder afferent nerves; details: rats; cited from earlier work
nodose C-fiber = details: guinea pigs; cited from earlier work
chorda tympani nerve = details: cited from earlier work
[4] = intraperitoneal, cited from earlier work

Protocol for humans: In some experiments, we used a regimen of two 1-minute rinses with 500 μM AF-353 composition (i.e., oral topical administration).
In this study, we tested an AF-353 composition in humans as an oral rinse after receiving IRB approval for its use. First, we tested rinsing 100 μM (0.04 mg/mL) orally for 2 minutes as 4×30 sec rinses with expectoration. We tested before and after sour, bitter, sweet, and salty solutions (quinine HCl, NaCl, Praziquantal, sucrose, CO2).
Next, we tested rinsing 500 μM (0.2 mg/mL) AF-353 for two minutes, in 2×1 min increment rinses with expectoration.

**Q.** Which “response of the stable cell lines” value (P2X2/3) does the source give for `COc1cc(C(C)C)c(Oc2cnc(N)nc2N)cc1I` [AF-353, 5-[5-iodo-4-methoxy-2-(1-methylethyl)phenoxy]-2,4-pyrimidinediamine] here?
**A.** dose-dependent manner

**Q.** And the half-life ([1]; in rat)?
**A.** 1.63 h

**Q.** What about the oral bioavailability ([1]; rat, in vivo, po) of the same compound?
**A.** high

**Q.** What about the CNS penetration ([1]; rat, in vivo) of the same compound?
**A.** good

**Q.** And the P2X3/P2X2/3 antagonist potency (P2X3/P2X2/3)?
**A.** high

**Q.** What about the “physically and chemically stable for” value [2] of the same compound?
**A.** at least 4 weeks

**Q.** What about the “pain caused by bone cancer” value (rats) of the same compound?
**A.** attenuate

**Q.** And the “activity mediated by P2X3/P2X2/3 receptors on bladder afferent nerves” value [3]?
**A.** counteracts

**Q.** And the “bronchoconstriction-induced nodose C-fiber discharge” value (nodose C-fiber)?
**A.** blocks

**Q.** And the “chorda tympani nerve responses elicited by orally applied taste stimuli” value (chorda tympani nerve; 1.0 or 1.1 mM flowed over the anterior tongue for 10 min, at 10 and 30 min after application)?
**A.** eliminated

**Q.** And the “chorda tympani nerve responses to all tastants” value (chorda tympani nerve; intraperitoneal injection, 6 mg/kg)?
**A.** abolished

**Q.** What about the “decrease of chorda tympani nerve responses” value (chorda tympani nerve; intraperitoneal, 0.25 mg/kg) of the same compound?
**A.** ~50%

**Q.** And the plasma concentration ([4]; 0.25 mg/kg)?
**A.** 1.3 µM

**Q.** And the plasma concentration ([4]; 6 mg/kg)?
**A.** 44 µM

**Q.** And the “intensity of sour, bitter, sweet and salty solutions after treatment (moderate before treatment)” value (humans; 100 μM (0.04 mg/mL), 2 minutes as 4×30 sec rinses, four participants)?
**A.** mild

**Q.** What about the tastes after treatment (humans; 500 μM (0.2 mg/mL), 2×1 min rinses with expectoration) of the same compound?
**A.** eliminated

**Q.** And the “recovery from abolishment of taste” value (humans; 500 μM rinse, at 2 hours after rinsing)?
**A.** 100 % of normal

**Q.** What about the “recovery of taste perception faster in some subjects” value (humans; 500 μM rinse, some subjects) of the same compound?
**A.** about 20 minutes

**Q.** What about the “ability to taste fully recovered after” value (humans; after oral rinse) of the same compound?
**A.** 1.5 to 3 h

**Q.** What about the “recovery of the ability to taste began” value (humans; after oral rinse) of the same compound?
**A.** ≤ 60 min

**Q.** And the “taste blockade (sweet, sour, salty, bitter (Quinine and Praziquantel))” value (humans; topical oral rinse and expectoration, 4 people)?
**A.** completely blocked taste

**Q.** What about the “negative side effects (oral numbing, tingling, strange oral sensations)” value (humans; topical oral rinse in humans) of the same compound?
**A.** did not cause numbness or any strange sensations

**Q.** And the “block of aroma or carbonation irritation” value (humans; topical oral rinse, 4 people)?
**A.** did not block
